Data: patent US10464918B2, “Process of making somatostatin modulators” (Crinetics Pharmaceuticals, Inc., priority 2018, dated 2019)
Values after ≈ are worked out from the molar mass of the structure shown. Structures can show the parent of a compound that is named as a salt. Where two headings read alike, the source gives them in different places. Values belong to the compound of their own block, whether it stands above or below them.

Experiments:
[1] = target: human SSTR2 (Homo sapiens (Human), UniProt P30874); assay: Functional cAMP assay for SSTR2 agonists; assay type: cell-based; details: inhibition of cAMP activities via human SST2R; CHO-K1 cells stably expressing human SSTR2
Sequence of human SSTR2 (P30874 whole entry): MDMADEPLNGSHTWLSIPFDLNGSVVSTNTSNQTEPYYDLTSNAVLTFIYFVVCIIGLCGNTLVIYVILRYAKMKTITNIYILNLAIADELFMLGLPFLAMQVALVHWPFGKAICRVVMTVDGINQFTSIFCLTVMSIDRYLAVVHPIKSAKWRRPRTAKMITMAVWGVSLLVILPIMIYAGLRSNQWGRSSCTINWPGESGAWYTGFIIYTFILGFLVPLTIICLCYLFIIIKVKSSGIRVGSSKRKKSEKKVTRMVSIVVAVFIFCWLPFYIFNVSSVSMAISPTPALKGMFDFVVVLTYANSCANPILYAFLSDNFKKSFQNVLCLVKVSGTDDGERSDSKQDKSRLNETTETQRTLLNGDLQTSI
Method: General overview: All five SSTR subtypes are Gi coupled G-protein coupled receptors (GPCRs) that lead to decreases in intracellular cyclic AMP (cAMP) when activated by an agonist. […] Human SSTR2 intracellular cAMP assay is described below. The human SSTR1, 3, 4 and 5 assays follow the same protocol of SSTR2.
The cells are cultured at 37° C., 5% CO2 and 95% humidity. […] The cells are incubated for 20 minutes at 37° C. […] The cells are treated with 50 μL of lysis buffer (HRTF cAMP kit, Cisbio). The lysate is transferred to 384-well plates and cAMP detection and visualization antibodies are added and incubated for 1-24 hours at room temperature. The time-resolved fluorescent signal is read with a Tecan M1000Pro multiplate reader. The intracellular cAMP concentrations are calculated by regression to a standard curve and are plotted vs. the concentration of the compounds of the invention and the EC50 of the compounds are calculated using standard methods. All data manipulations are in GraphPad Prism v6.

[2] = Solubility in water, FaSSGF and FaSSIF (slurry, HPLC); assay type: physicochemical; details: slurried at 37° C. for 2 days; for solubility at 2 days: 37 °C, thermodynamic from solid
Method: The salt forms were slurried in water, Fasted State Simulated Gastric Fluid (FaSSGF), and Fasted State Simulated Intestinal Fluid (FaSSIF) at 37° C. for 2 days. Part of the slurry was filtered using a […] syringe filter to recover the supernatant for solubility measurement and the rest was filtered to recover the remaining solid for XRPD analysis.
A calibration curve was developed for measuring concentration via HPLC. Compound A was added to a 100 mL volumetric flask and then filled to the volume with HPLC grade ethanol. […] A 30 minute gradient method with Solvent A as water with 0.1% TFA and solvent B as Methanol:Acetonitrile (1:1) was used.
The calibration correlation was used to measure the solubility of the salt forms. From the clear saturated solution, 0.1 mL liquid was transferred into a 10 mL vial and then filled to the volume with methanol. The solution was then directly injected into the HPLC.

[3] = Dynamic Vapor Sorption (DVS); assay type: physicochemical; details: for XRPD after DVS analysis: DVS between 2 and 95% RH
Method: Dynamic Vapor Sorption (DVS) was done using a DVS Intrinsic 1. The sample is loaded into a sample pan and suspended from a microbalance. A typical sample mass for DVS measurement is 25 mg. Nitrogen gas bubbled through distilled water provides the desired relative humidity.
A typical measurement includes the steps: • 1—Equilibrate at 50% RH • 2—50% to 2%. (50%, 40%, 30%, 20%, 10% and 2%) • a. Hold minimum of 5 mins and maximum of 60 minutes at each humidity. The pass criteria is less than 0.002% change • 3—2% to 95% (2%, 10%, 20%, 30%, 40%, 50%, 60%, 70%, 80%, 90%, 95%) • a. Hold minimum of 5 mins and maximum of 60 minutes at each humidity. The pass criteria is less than 0.002% change • 4—95% to 2% (95%, 80%, 70%, 60%, 50%, 40%, 30%, 20%, 10%, 2%) • a. Hold minimum of 5 mins and maximum of 60 minutes at each humidity. The pass criteria is less than 0.002% change • 5—2% to 50% (2%, 10%, 20%, 30%, 40%, 50%) • a. Hold minimum of 5 mins and maximum of 60 minutes at each humidity. The pass criteria is less than 0.002% change

[4] = Thermal study (TGA/DSC heating followed by XRPD); assay type: physicochemical; details: heated by TGA/DSC, cooled to RT
Method: Differential Scanning calorimetry (DSC) was done using a Mettler Toledo DSC3+. Aluminum crucible with cramped pinned lid were used. The heating rates are usually 10° C. per minute from 30 to 250° C. Thermogravimetric Analysis (TGA) was done using a Mettler Toledo TGA/DSC3+. Aluminum crucible with cramped pinned lid were used. The heating rates are usually 10° C. per minute from 30 to 250° C. […] These peaks were evaluated using thermal analysis and XRPD techniques. Compound A-HCl was heated to various temperatures using TGA/DSC followed by cooling to room temperature and analysis using XRPD. […] The following thermal treatments were performed: Sample 1: heated the salt to 100° C. and cooled to RT followed by XRPD; Sample 2: heated the salt to 150° C. and cooled to RT followed by XRPD; Sample 3: heated the salt to 200° C. and cooled to RT followed by XRPD; Sample 4: heated the salt to 250° C. and cooled to RT followed by XRPD; and Sample 5: heated the salt to 295° C. and cooled to RT followed by XRPD.

[5] = Fasted State Simulated Gastric Fluid (FaSSGF), fassgf or other biorelevant, Fasted State Simulated Gastric Fluid, read-out: Solubility in FaSSGF
[6] = Fasted State Simulated Intestinal Fluid (FaSSIF), fassif, Fasted State Simulated Intestinal Fluid, read-out: Solubility in FaSSIF

EC50 [1]: < 10 nM
Compound: Cc1cc(F)cc(-c2cnc3ccc(-c4nccc(C#N)c4N)cc3c2N2CC[C@@H]3NCCO[C@H]3C2)c1 [Compound 1-4, 2-{4-[(4aS,8aS)-octahydro-1H-pyrido[3,4-b][1,4]oxazin-6-yl]-3-(3-fluoro-5-methylphenyl)quinolin-6-yl}-3-aminopyridine-4-carbonitrile]

EC50 [1]: < 10 nM
Compound: N#Cc1ccnc(-c2ccc3ncc(-c4cc(F)cc(Cl)c4)c(N4CC[C@@H]5NCCO[C@H]5C4)c3c2)c1N [Compound 1-5, 2-{4-[(4aS,8aS)-octahydro-1H-pyrido[3,4-b][1,4]oxazin-6-yl]-3-(3-chloro-5-fluorophenyl)quinolin-6-yl}-3-aminopyridine-4-carbonitrile]

EC50 [1]: < 10 nM
Compound: Nc1c(/C=N/O)ccnc1-c1ccc2ncc(-c3cc(F)cc(F)c3)c(N3CC[C@@H]4NCCO[C@H]4C3)c2c1 [Compound 1-6, 2-{4-[(4aS,8aS)-octahydro-1H-pyrido[3,4-b][1,4]oxazin-6-yl]-3-(3,5-difluorophenyl)quinolin-6-yl}-4-[(1E)-(hydroxyimino)methyl]pyridin-3-amine]

EC50 [1]: < 10 nM
Compound: N#Cc1ccnc(-c2ccc3ncc(-c4cccc(F)c4)c(N4CC[C@@H]5NCCO[C@H]5C4)c3c2)c1N [Compound 1-7, 2-{4-[(4aS,8aS)-octahydro-1H-pyrido[3,4-b][1,4]oxazin-6-yl]-3-(3-fluorophenyl)quinolin-6-yl}-3-aminopyridine-4-carbonitrile]

EC50 [1]: < 10 nM
Compound: Cc1ccnc(-c2ccc3ncc(-c4cccc(F)c4)c(N4CC[C@@H]5NCCO[C@H]5C4)c3c2)c1N [Compound 1-8, 2-{4-[(4aS,8aS)-octahydro-1H-pyrido[3,4-b][1,4]oxazin-6-yl]-3-(3-fluorophenyl)quinolin-6-yl}-4-methylpyridin-3-amine]

EC50 [1]: < 10 nM
Compound: Cc1cc(F)cc(-c2cnc3ccc(-c4cccc(C#N)c4O)c(F)c3c2N2CCC(N)CC2)c1 [Compound 1-9, 3-[4-(4-aminopiperidin-1-yl)-5-fluoro-3-(3-fluoro-5-methylphenyl)quinolin-6-yl]-2-hydroxybenzonitrile]

EC50 [1]: < 10 nM
Compound: Cc1cc(F)cc(-c2cnc3cc(F)c(-c4cccc(C#N)c4O)cc3c2N2CCC(N)CC2)c1 [Compound 1-10, 3-[4-(4-aminopiperidin-1-yl)-7-fluoro-3-(3-fluoro-5-methylphenyl)quinolin-6-yl]-2-hydroxybenzonitrile]

The next lines start with the compound.

Compound: O/N=C/c1cccc(-c2ccc3ncc(-c4cc(F)cc(F)c4)c(N4CC[C@@H]5NCCO[C@H]5C4)c3c2)c1O [Compound 1-1, 2-{4-[(4aS,8aS)-octahydro-1H-pyrido[3,4-b][1,4]oxazin-6-yl]-3-(3,5-difluorophenyl)quinolin-6-yl}-6-[(1E)-(hydroxyimino)methyl]phenol]
EC50 [1]: < 10 nM

Compound: CO/N=C/c1ccnc(-c2ccc3ncc(-c4cc(C)cc(F)c4)c(N4CC[C@@H]5NCCO[C@H]5C4)c3c2)c1N [Compound 1-2, 2-{4-[(4aS,8aS)-octahydro-1H-pyrido[3,4-b][1,4]oxazin-6-yl]-3-(3-fluoro-5-methylphenyl)quinolin-6-yl}-4-[(1E)-(methoxyimino)methyl]pyridin-3-amine]
EC50 [1]: < 10 nM

Compound: CO/N=C/c1ccnc(-c2ccc3ncc(-c4cc(F)cc(Cl)c4)c(N4CC[C@@H]5NCCO[C@H]5C4)c3c2)c1N [Compound 1-3, 2-{4-[(4aS,8aS)-octahydro-1H-pyrido[3,4-b][1,4]oxazin-6-yl]-3-(3-chloro-5-fluorophenyl)quinolin-6-yl}-4-[(1E)-(methoxyimino)methyl]pyridin-3-amine]
EC50 [1]: < 10 nM

Compound: N#Cc1cccc(-c2ccc3ncc(-c4cc(F)cc(F)c4)c(N4CCC(N)CC4)c3c2)c1O [Compound A, 3-(4-(4-amino-piperidin-1-yl)-3-(3,5-difluoro-phenyl)-quinolin-6-yl)-2-hydroxy-benzonitrile]
EC50 [1]: < 10 nM
solubility at 2 days [2, 5]: 2430 µg/mL (≈ 5320 µM)
solubility at 2 days [2, 6]: 13 µg/mL (≈ 28.5 µM)
Solubility in Water ([2]; water, listed as Compound A (free base)): 5 µg/mL (≈ 11 µM)

Compound: N#Cc1cccc(-c2ccc3ncc(-c4cc(F)cc(F)c4)c(N4CCC(N)CC4)c3c2)c1O [Compound A-2HCl, 3-[4-(4-amino-piperidin-1-yl)-3-(3,5-difluoro-phenyl)-quinolin-6-yl]-2-hydroxy-benzonitrile dihydrochloride]
Solubility in FaSSGF ([2]; Fasted State Simulated Gastric Fluid, dihydrochloride): 3690 µg/mL
Solubility in FaSSIF ([2]; Fasted State Simulated Intestinal Fluid, dihydrochloride): 11 µg/mL
Solubility in Water ([2]; water, dihydrochloride): 5630 µg/mL
XRPD after DVS analysis [3]: unchanged
reversible water uptake ([3]; between 2 and 95% RH): ~18 % w/w
reversible water uptake ([3]; between 15 and 75% RH): ~9 % w/w

Compound: Cl.N#Cc1cccc(-c2ccc3ncc(-c4cc(F)cc(F)c4)c(N4CCC(N)CC4)c3c2)c1O [Compound A-HCl, 3-[4-(4-amino-piperidin-1-yl)-3-(3,5-difluoro-phenyl)-quinolin-6-yl]-2-hydroxy-benzonitrile monohydrochloride]
solubility at 2 days [2, 5]: 2120 µg/mL
solubility at 2 days [2, 6]: 10 µg/mL
solubility at 2 days ([2]; water, water, water, read-out: Solubility in Water): 830 µg/mL
XRPD after DVS analysis [3]: unchanged
reversible water uptake ([3]; between 2 and 95% RH): ~4.5 % w/w
reversible water uptake ([3]; between 15 and 75% RH): ~2.3 % w/w
temperature up to which the solid is intact [4]: up to 200 °C
